How the values were obtained:
[1] = Critical micelle concentration by surface-tension measurements; type: physicochemical
[2] = Cur stability in Krebs–Ringer intestinal circulation-perfusion solution; type: physicochemical; settings: 2 hours at 37°C
liver microsomal enzymes = settings: within 30 minutes ref 14; cited from earlier work

Molecule | Critical micelle concentration [1] | Cur stability in the KR solution [2] | Biotransformation of Cur to sulfate or glucuronide conjugates (liver microsomal enzymes)
TCA-PEG100-monostearate [S100-TCA] | 15.86 ± 0.53 µg/mL |  | 
COc1cc(/C=C/C(=O)CC(=O)/C=C/c2ccc(O)c(OC)c2)ccc1O [Cur, Curcumin] |  | neither degraded | 90%

Reference: article PMC5667785 (International Journal of Nanomedicine, 2017)
